The source made the active and inactive calls.
Columns and labels:
[1] = molecular target: Lytic switch protein BZLF1 (Epstein-Barr virus (strain B95-8) (HHV-4) (Human herpesvirus 4), UniProt P03206); test: EBV ZTA inhibitors, dose response, counter-screen for EBNA-1 inhibitor project, biochemical, fluorescence polarization, Epstein-Barr virus, 1536-well (AID 2377); parameters: species or system human gammaherpesvirus 4;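 also: fluorescence polarization of Cy5-labelled ZRE DNA probe bound by purified Zta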
[2] = molecular target: Epstein-Barr nuclear antigen 1 (Epstein-Barr virus (strain B95-8) (HHV-4) (Human herpesvirus 4), UniProt P03211); test: EBNA-1 inhibitors, dose response, biochemical, fluorescence polarization, 1536-well (AID 2381); parameters: species or system human gammaherpesvirus 4;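 also: fluorescence polarization of a Cy5 DNA probe bound by EBNA-1 protein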
[3] = molecular target: Peroxisome proliferator-activated receptor gamma/Nuclear receptor coactivator 2 (Homo sapiens, UniProt P37231); format: functional;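 also: agonist potency for raising coactivator recruitment to the receptor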
[4] = molecular target: Peroxisome proliferator-activated receptor gamma/Nuclear receptor coactivator 1 (Homo sapiens, UniProt P37231); format: functional;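 also: agonist potency as compounds enhance coactivator SRC-1 recruitment to PPARgamma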
[5] = molecular target: Peroxisome proliferator-activated receptor gamma/Nuclear receptor coactivator 3 (Homo sapiens, UniProt P37231); format: functional;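 also: agonist potency for raising coactivator recruitment to the receptor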
[6] = molecular target: T1, DNA repair protein RAD52 homolog (Homo sapiens, UniProt P43351); format: functional, biochemical
T1 sequence (P43351 whole entry): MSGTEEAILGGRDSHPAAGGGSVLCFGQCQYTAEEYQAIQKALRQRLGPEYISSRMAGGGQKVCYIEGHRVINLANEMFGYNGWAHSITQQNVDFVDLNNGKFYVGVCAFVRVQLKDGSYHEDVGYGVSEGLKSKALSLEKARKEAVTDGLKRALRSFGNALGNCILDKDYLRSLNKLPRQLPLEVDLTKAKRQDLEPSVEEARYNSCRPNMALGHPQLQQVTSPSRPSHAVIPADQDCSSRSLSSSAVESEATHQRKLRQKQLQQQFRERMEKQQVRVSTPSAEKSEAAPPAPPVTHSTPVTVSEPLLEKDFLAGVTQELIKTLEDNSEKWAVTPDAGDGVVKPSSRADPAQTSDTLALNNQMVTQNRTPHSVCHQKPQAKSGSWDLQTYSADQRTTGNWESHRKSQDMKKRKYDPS

[7] = molecular target: T2, DNA repair and recombination protein RAD54-like (Homo sapiens, UniProt Q92698); test: inhibitors of human RAD54 branch migration, confirmation, biochemical, fluorescence, cherry-picked samples, dose series (AID 651657); format: functional
T2 sequence (Q92698 whole entry): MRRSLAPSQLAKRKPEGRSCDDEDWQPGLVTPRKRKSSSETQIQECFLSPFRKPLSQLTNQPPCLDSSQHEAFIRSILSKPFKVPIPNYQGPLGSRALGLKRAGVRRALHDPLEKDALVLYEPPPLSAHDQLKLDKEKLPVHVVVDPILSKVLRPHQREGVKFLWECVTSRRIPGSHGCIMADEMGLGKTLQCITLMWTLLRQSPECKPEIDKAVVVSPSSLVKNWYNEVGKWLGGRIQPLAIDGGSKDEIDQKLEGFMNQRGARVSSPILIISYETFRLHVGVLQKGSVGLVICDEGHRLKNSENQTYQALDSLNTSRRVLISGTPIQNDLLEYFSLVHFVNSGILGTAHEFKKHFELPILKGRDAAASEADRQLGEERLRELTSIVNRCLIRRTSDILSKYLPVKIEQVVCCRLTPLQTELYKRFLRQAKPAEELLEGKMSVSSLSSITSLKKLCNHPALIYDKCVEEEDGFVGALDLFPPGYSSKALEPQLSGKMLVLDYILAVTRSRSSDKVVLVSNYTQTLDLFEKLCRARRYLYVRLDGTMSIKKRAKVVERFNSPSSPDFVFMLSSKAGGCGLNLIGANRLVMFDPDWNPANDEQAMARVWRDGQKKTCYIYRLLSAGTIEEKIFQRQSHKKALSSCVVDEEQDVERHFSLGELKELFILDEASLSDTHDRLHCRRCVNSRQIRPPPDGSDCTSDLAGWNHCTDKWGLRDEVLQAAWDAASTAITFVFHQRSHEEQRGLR

CAAX prenyl protease 2 [8] = molecular target: T3, CAAX prenyl protease 2 (Saccharomyces cerevisiae S288c, UniProt Q03530); format: biochemical
T3 sequence (Q03530 whole entry): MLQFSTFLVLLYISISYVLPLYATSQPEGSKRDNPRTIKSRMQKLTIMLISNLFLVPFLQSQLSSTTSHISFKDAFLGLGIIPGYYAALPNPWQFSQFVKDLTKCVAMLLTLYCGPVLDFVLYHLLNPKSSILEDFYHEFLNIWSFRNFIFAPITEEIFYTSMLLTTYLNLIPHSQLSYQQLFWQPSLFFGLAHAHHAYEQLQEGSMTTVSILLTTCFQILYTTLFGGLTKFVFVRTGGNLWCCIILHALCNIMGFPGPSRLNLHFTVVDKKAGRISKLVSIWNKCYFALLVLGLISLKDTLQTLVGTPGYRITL

CAAX prenyl protease 2 [9] = molecular target: T4, CAAX prenyl protease 2 (Homo sapiens, UniProt Q9Y256); test: human Rce1 protease inhibitors, dose response, biochemical, yeast membranes, quenched-peptide fluorescence, cherry-pick (AID 588849)
T4 sequence (Q9Y256 whole entry): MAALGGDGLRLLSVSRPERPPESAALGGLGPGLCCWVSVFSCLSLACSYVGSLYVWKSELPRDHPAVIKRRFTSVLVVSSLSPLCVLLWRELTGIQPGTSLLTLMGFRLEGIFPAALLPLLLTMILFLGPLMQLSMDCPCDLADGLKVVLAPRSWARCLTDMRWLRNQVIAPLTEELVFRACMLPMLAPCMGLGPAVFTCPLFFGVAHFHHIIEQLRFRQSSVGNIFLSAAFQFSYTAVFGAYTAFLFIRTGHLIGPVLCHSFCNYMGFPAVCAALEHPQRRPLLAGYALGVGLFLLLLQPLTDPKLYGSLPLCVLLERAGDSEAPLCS

[10] = molecular target: Aryl hydrocarbon receptor (Homo sapiens, UniProt P35869); test: Luminescence-based cell-based high throughput dose response assay for activators of the Aryl Hydrocarbon Receptor (AHR). [Related pubchem assays: 2796 (Primary screen (AHR activators in singlicate)), 2845 (Confirmation screen (AHR activators in triplicate)), 434939 (Counterscreen (PXR activators in triplicate)), 2804 (Summary (AHR activators))]; format: ADME
Trypsin = Trypsin (Sus scrofa, UniProt P00761); test: porcine trypsin inhibitors, dose response, selectivity assay for Rce1 protease inhibitor project, biochemical, quenched peptide fluorescence, cherry-pick (AID 488789)
HeLa = test: HeLa cell cytotoxicity, dose response, cytotoxicity control for MITF activator project, CellTiter-Glo luminescence, cherry-pick samples (AID 540259); format: functional, cell-based; conditions: Homo sapiens
H4 = test: Luminescence Cell-Based Dose Response HTS to Identify Activators of 5'UTR Stem-Loop Driven Prion Protein mRNA Translation in H4 Neuroglioblastoma Cells. [Related pubchem assays: 1829 (Project Summary), 1814 (Primary HTS)]; format: functional; conditions: Homo sapiens
[11] = Luminescence Cell-Based Dose Response to Identify Activators of Luciferase Translation or Activity in H4-C Neuroglioblastoma Cells. [Related pubchem assays: 1829 (Project Summary), 1814 (Primary HTS)]; format: functional
[12] = Luminescence Cell-Based Dose Response HTS to Identify Activators of Luciferase Translation or Activity in H4 […] Cells. [Related pubchem assays: 1829 (Project Summary), 1814 (Primary HTS)]; format: functional
[13] = Luminescence Cell-Based Dose Confirmation to Identify Activators of 5'UTR Stem-Loop Driven Alpha-Synuclein mRNA Translation in H4 Neuroglioblastoma Cells. [Related pubchem assays: 1829 (Project Summary), 1814 (Primary HTS)]; format: functional
[14] = Luminescence Cell-Based Dose Response to Identify Activators of 5'UTR Stem-Loop Driven Prion Protein mRNA Translation in H4-C Neuroglioblastoma Cells. [Related pubchem assays: 1829 (Project Summary), 1814 (Primary HTS)]; format: functional
[15] = molecular target: T5, Neuropeptide Y receptor type 1 (Homo sapiens, UniProt P25929); format: functional;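 also: HEK293 cells with a CNG channel challenged with NPY then isoproterenol; potency as antagonist that reverses NPY suppression of cAMP signal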
T5 sequence (P25929 whole entry): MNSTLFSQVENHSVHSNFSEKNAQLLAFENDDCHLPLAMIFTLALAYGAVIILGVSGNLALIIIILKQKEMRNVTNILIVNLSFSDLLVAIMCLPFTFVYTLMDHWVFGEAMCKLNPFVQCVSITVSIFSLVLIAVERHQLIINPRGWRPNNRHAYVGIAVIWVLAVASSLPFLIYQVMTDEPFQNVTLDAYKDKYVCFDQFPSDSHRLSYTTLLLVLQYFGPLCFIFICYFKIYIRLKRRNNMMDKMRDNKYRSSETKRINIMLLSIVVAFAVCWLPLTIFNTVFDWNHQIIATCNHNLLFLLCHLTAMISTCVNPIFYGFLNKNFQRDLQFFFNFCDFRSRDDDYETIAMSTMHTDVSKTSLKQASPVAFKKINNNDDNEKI

[16] = molecular target: T6, Neuropeptide Y receptor type 2 (Homo sapiens, UniProt P49146); format: functional, cell-based;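 also: HEK293 cells expressing the receptor and a CNG channel; stimulus was NPY near EC95 followed by isoproterenol to raise cAMP; antagonist potency measured as restoring cAMP signal that NPY suppresses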
T6 sequence (P49146 whole entry): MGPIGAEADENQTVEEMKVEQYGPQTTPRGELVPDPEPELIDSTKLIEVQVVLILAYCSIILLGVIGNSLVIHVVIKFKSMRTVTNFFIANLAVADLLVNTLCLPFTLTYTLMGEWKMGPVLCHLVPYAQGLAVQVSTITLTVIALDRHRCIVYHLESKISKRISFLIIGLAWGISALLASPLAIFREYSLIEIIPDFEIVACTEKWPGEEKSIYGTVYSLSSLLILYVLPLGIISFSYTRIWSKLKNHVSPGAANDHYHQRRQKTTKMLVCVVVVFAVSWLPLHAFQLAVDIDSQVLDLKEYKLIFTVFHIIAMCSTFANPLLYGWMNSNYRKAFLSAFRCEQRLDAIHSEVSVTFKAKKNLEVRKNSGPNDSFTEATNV

[17] = molecular target: T7, Short transient receptor potential channel 4 (Mus musculus, UniProt Q9QUQ5); test: mouse TRPC4 channel inhibitors, dose response, cell-based, HEK293 TRPC4/mu-opioid, Fluo-4 calcium (AID 434942); format: functional;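 also: potency of inhibitors blocking the TRPC4 calcium response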
T7 sequence (Q9QUQ5 whole entry): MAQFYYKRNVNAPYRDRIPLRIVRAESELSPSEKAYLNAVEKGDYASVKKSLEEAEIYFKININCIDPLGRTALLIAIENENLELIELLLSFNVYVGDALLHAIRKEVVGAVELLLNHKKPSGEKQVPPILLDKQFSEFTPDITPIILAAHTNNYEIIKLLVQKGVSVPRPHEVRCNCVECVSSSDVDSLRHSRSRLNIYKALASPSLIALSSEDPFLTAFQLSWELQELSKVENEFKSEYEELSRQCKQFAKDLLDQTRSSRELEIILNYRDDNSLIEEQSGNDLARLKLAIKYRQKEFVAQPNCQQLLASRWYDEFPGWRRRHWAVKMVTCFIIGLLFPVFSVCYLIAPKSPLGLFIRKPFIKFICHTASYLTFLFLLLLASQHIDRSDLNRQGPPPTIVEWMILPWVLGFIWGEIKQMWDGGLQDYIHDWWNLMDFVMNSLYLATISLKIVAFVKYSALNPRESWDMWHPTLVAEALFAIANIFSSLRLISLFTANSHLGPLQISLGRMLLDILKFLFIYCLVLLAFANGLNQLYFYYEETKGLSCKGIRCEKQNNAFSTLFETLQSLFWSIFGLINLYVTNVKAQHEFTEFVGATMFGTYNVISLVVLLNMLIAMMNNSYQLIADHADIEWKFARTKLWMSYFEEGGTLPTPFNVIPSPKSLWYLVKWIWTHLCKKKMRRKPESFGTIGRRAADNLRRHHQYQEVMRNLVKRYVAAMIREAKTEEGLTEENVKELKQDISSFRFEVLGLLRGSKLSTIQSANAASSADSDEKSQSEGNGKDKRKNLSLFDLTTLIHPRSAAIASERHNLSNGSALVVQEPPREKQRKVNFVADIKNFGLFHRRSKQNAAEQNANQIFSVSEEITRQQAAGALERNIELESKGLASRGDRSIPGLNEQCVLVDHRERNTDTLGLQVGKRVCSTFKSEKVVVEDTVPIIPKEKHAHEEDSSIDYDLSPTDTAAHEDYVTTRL

[18] = molecular target: Luciferin 4-monooxygenase (Photinus pyralis, UniProt P08659); test: Counter Screen for Luciferase-based Assay Positives. [Related pubchem assays: 620, 618, 411 ]
HT-1080 = test: cytotoxicity in HT1080 fibrosarcoma cells, cell-based, fluorescence readout (AID 620); format: functional; conditions: Homo sapiens

Lytic switch protein BZLF1, sequence (P03206 whole entry): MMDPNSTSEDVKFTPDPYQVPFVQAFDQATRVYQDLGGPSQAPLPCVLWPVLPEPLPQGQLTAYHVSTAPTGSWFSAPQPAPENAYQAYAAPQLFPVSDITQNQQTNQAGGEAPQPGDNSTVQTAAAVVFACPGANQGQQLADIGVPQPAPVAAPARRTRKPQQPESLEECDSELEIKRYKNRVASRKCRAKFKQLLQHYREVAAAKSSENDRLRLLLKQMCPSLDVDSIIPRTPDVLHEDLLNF
Peroxisome proliferator-activated receptor gamma/Nuclear receptor coactivator 3, sequence (P37231 whole entry): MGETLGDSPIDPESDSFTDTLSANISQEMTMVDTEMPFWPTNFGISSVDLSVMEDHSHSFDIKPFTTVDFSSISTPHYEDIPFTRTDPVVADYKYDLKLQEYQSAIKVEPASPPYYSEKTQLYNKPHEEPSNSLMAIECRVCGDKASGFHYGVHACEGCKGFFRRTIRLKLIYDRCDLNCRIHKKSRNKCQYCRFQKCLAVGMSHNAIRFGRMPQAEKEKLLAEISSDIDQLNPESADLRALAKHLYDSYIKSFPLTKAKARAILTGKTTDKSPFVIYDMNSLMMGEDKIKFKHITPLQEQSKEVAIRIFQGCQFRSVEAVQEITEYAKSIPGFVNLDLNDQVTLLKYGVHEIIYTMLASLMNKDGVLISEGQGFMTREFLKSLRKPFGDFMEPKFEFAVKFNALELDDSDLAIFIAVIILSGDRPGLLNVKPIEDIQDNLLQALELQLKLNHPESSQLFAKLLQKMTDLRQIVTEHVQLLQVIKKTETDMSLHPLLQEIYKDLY
Peroxisome proliferator-activated receptor gamma/Nuclear receptor coactivator 3, sequence (Q9Y6Q9 whole entry, further chain): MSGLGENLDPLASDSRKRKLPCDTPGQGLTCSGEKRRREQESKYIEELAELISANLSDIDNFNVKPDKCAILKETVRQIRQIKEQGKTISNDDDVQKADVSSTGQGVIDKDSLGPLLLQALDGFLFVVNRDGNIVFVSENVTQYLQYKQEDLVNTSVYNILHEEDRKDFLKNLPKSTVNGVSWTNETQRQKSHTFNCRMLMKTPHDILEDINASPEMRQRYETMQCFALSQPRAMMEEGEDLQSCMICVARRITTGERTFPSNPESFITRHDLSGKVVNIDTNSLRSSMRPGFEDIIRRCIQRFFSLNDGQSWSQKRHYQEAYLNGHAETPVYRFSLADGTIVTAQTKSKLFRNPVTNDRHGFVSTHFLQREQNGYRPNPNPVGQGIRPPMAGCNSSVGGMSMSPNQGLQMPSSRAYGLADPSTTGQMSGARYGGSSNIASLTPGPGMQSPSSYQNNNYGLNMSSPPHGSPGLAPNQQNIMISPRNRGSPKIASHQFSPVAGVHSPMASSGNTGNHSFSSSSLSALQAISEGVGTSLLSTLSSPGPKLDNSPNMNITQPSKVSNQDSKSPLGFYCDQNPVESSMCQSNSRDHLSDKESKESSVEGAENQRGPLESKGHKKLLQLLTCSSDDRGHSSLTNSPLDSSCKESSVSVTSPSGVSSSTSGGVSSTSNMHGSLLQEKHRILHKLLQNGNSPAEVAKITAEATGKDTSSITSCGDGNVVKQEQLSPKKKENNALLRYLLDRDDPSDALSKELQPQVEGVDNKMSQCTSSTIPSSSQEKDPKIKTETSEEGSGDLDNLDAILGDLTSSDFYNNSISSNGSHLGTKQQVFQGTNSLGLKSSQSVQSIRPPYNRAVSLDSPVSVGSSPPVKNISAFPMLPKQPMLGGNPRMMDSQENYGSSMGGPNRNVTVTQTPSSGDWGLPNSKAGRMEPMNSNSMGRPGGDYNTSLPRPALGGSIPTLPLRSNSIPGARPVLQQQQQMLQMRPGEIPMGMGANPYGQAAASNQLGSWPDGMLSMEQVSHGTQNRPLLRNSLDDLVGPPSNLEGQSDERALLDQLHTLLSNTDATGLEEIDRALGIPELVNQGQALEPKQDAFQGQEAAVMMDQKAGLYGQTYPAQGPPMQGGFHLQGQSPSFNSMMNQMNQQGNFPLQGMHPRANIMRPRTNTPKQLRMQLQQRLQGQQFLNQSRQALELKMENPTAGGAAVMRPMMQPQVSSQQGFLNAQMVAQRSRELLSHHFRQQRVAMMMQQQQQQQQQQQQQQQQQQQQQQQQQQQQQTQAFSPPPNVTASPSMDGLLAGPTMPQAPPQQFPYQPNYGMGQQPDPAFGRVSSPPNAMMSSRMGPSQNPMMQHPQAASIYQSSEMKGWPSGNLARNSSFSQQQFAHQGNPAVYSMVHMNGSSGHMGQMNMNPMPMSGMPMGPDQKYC
Peroxisome proliferator-activated receptor gamma/Nuclear receptor coactivator 2, sequence (P37231 whole entry): as the sequence (P37231 whole entry) above
Peroxisome proliferator-activated receptor gamma/Nuclear receptor coactivator 2, sequence (Q15596 whole entry, further chain): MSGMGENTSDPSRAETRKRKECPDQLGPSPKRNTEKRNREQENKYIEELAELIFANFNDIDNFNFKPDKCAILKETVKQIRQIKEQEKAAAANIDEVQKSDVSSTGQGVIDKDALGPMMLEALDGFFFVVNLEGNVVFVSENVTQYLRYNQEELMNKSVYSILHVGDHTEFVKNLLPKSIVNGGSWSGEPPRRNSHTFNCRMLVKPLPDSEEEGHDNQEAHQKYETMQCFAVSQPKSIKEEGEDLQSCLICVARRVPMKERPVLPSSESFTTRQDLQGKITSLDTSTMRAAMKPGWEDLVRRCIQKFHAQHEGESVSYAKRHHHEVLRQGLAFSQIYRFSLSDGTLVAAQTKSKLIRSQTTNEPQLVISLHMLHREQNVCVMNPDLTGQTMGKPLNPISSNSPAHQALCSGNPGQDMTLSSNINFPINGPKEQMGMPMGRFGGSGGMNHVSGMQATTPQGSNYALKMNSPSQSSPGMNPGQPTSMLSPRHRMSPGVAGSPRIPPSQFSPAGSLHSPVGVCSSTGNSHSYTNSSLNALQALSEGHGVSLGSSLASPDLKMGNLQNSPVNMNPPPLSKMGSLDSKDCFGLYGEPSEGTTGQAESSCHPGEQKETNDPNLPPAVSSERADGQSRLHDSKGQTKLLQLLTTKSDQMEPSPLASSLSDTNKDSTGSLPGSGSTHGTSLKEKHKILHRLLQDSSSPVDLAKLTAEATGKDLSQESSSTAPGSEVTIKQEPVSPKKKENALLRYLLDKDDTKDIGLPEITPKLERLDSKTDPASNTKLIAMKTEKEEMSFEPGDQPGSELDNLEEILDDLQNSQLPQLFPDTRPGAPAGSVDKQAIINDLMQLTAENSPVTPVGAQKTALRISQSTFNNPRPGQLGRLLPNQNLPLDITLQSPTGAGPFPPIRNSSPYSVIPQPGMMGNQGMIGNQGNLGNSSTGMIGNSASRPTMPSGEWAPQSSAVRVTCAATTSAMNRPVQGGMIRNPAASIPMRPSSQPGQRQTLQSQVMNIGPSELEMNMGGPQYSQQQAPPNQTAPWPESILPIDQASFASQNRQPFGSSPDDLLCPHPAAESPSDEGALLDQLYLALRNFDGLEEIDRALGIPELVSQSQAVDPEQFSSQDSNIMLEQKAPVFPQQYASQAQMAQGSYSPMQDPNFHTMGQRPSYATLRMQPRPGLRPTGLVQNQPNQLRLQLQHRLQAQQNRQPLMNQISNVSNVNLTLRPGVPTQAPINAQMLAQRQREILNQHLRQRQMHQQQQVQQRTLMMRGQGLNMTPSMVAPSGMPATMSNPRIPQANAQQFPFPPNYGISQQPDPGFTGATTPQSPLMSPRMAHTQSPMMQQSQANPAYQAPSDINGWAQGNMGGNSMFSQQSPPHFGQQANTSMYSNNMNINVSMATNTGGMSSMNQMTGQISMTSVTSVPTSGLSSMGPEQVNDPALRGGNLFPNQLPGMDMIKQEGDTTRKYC
Epstein-Barr nuclear antigen 1, sequence (P03211 whole entry): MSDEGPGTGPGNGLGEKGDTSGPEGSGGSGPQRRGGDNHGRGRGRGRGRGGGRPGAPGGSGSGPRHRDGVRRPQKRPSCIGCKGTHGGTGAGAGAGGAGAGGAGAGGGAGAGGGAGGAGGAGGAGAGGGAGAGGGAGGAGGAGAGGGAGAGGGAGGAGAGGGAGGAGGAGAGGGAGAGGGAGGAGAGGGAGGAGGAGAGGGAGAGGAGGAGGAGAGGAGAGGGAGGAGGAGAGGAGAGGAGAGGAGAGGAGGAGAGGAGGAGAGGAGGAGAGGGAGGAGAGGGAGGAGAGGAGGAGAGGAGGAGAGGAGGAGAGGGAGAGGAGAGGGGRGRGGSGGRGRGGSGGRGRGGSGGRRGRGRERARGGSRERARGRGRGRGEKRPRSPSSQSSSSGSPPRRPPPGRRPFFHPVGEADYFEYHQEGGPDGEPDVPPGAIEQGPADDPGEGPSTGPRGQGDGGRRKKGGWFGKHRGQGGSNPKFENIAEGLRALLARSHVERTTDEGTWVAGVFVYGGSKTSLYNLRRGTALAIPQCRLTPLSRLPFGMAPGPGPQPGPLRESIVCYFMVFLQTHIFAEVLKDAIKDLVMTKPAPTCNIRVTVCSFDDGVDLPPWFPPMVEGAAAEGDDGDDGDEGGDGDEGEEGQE
Trypsin, sequence (P00761 whole entry): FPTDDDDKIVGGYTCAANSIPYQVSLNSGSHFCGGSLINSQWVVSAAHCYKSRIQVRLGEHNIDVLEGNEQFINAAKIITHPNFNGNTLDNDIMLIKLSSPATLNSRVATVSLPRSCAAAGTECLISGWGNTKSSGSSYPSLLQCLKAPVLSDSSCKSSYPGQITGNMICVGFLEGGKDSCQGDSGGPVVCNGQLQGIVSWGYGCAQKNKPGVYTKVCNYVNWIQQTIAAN

O=C(CCCCCn1c(=S)[nH]c2cc3c(cc2c1=O)OCO3)N1CCN(Cc2ccccc2)CC1
IC50 [1]: > 111 µM (not active) | IC50 [2]: 14.9 µM (not active)

CC1=NN(C(=O)Cn2ccc([N+](=O)[O-])n2)C(O)(C(F)(F)F)C1 (configuration not stated)
EC50 [3]: > 79.4 µM (not active) | EC50 [4]: > 79.4 µM (not active) | EC50 [5]: > 79.4 µM (not active)

CN(C)CCCN1C(=O)c2cccc3cccc(c23)C1=O
AC50 [6]: 16.4 µM (active) | AC50 [7]: 11.1 µM (active) | AC50 (CAAX prenyl protease 2 [8]): 68.1 µM (active) | AC50 (CAAX prenyl protease 2 [9]): 5.4 µM (active) | EC50 [10]: 0.815 µM (active) | AC50 (Trypsin): 38 µM (active)

FC(F)Oc1ccc(/N=C2\SCC3CCCCN23)cc1 (configuration not stated)
AC50 (HeLa): 342 µM (active) | EC50 (H4): 30.2 µM (inconclusive) | EC50 [11]: 0.34 µM (active) | EC50 [12]: < 0.1 µM (active) | EC50 [13]: 0.405 µM (active) | EC50 [14]: 1.04 µM (active)

Cc1nc2cc(Nc3nnc(-c4ccccc4)c4ccccc34)ccc2n1C
EC50 (H4): 31.4 µM (active) | EC50 [11]: > 12 µM (not active) | EC50 [12]: < 0.1 µM (active) | EC50 [13]: 2.91 µM (active) | EC50 [14]: > 12 µM (not active)

COc1cccc(-c2ccc(C#N)c(SCC(=O)NCCc3ccc(Cl)cc3)n2)c1
IC50 [15]: 4.58 µM (active) | IC50 [16]: 6.45 µM (active)

COc1cccc(N2CC(=O)C(c3nc(O)c4ccccc4n3)=C2N)c1
IC50 [1]: > 111 µM (not active) | IC50 [2]: 10.2 µM (not active) | EC50 [17]: 0.133 µM (active)

CCOC(=O)c1cnc2c(C)c(Cl)ccc2c1N1CCOCC1
EC50 [3]: > 79.4 µM (not active) | EC50 [4]: > 79.4 µM (not active) | EC50 [5]: > 79.4 µM (not active)

c1ccc(-c2cnc(-c3ccccc3)nc2)cc1
EC50 [18]: 14.3 µM (active) | EC50 (HT-1080): > 50 µM (not active)

From ChEMBL document CHEMBL1201862, “PubChem BioAssay data set” (2004)
